Test results from patent US6869913B1, “Pyridazin-3-one derivatives, their use and intermediates for their production” (Sumitomo Chemical Company, Limited, priority 1995, dated 2005).

Experiments:
Format in all cases: in vivo
[1] = tested on: entireleaf morningglory (Ipomoea hederacea var. integriuscula); experiment: Test Example 1: foliar treatment on upland fields; conditions: 500 g/ha active ingredient; foliar spray; examined 19 days after application
Protocol: (§1) Cylindrical plastic pots of 10 cm in diameter and 10 cm in depth were filled with soil, in which the seeds of […] (Ipomoea hederacea var. integriuscula) and velvetleaf (Abutilon theophrash) were sowed, and the test plants were grown in a greenhouse for 19 days. Each of the test compounds listed below was formulated into an emulsifiable concentrate according to Formulation Example 2, which was diluted with water containing a spreading agent to a prescribed concentration. The dilution was uniformly sprayed over the foliage of the test plants with a sprayer at a volume of 1000 liters per hectare. After the application, the test plants were grown in the greenhouse for 19 days, and the herbicidal activity was examined.

[2] = tested on: velvetleaf (Abutilon theophrash); experiment: Test Example 1: foliar treatment on upland fields; conditions: 500 g/ha active ingredient; foliar spray; examined 19 days after application
Protocol: as §1

[3] = tested on: barnyardgrass (Echinochloa crus-galli); experiment: Test Example 2: foliar treatment on upland fields; parameters: key: rating; 4–5 = excellent activity, 3 or lower = insufficient; conditions: 32 g/ha active ingredient; foliar spray; examined 19 days after application
Text: (§2) The herbicidal activity is excellent when rated at “4” or “5” but insufficient when rated at “3” or lower. The phytotoxicity is no problematic on practical use when rated at “0” or “1” but not allowed when rated at “2” or higher.
(§3) Cylindrical plastic pots of 10 cm in diameter and 10 cm in depth were filled with soil, in which the seeds of barnyardgrass (Echinochloa crus-galli), entireleaf morningglory (Ipomoea hederacea var. integriuscula) and velvetleaf (Abutilon theophrash) were sowed, and the test plants were grown in a greenhouse for 19 days. Each of the test compounds listed below was formulated into an emulsifiable concentrate according to Formulation Example 2, which was diluted with water containing a spreading agent to a prescribed concentration. The dilution was uniformly sprayed over the foliage of the test plants with a sprayer at a volume of 1000 liters per hectare. After the application, the test plants were grown in the greenhouse for 19 days, and the herbicidal activity was examined.

[4] = tested on: entireleaf morningglory (Ipomoea hederacea var. integriuscula); experiment: Test Example 2: foliar treatment on upland fields; parameters: key: rating; 4–5 = excellent activity, 3 or lower = insufficient; conditions: 32 g/ha active ingredient; foliar spray; examined 19 days after application
Text: as §2, §3

[5] = tested on: velvetleaf (Abutilon theophrash); experiment: Test Example 2: foliar treatment on upland fields; parameters: key: rating; 4–5 = excellent activity, 3 or lower = insufficient; conditions: 32 g/ha active ingredient; foliar spray; examined 19 days after application
Text: as §2, §3

[6] = tested on: entireleaf morningglory (Ipomoea hederacea var. integriuscula); experiment: Test Example 3: soil surface treatment on upland fields; conditions: 500 g/ha active ingredient; soil surface spray; examined after 19 days
Protocol: (§4) Cylindrical plastic pots of 10 cm in diameter and […] in depth were filled with soil, in which the seeds of […] (Ipomoea hederacea var. integriuscula) and velvetleaf (Abutilon theophrash) were sowed. Each of the test compounds listed below was formulated into an emulsifiable concentrate according to Formulation Example 2, which was diluted with water to a prescribed concentration. The dilution was uniformly sprayed over the soil surface in the pots with a sprayer at a volume of 1000 liters per hectare. After the application, the test plants were grown in a greenhouse for 19 days, and the herbicidal activity was examined.

[7] = tested on: velvetleaf (Abutilon theophrash); experiment: as above; conditions: 500 g/ha active ingredient; soil surface spray; examined after 19 days
Protocol: as §4

[8] = tested on: barnyardgrass (Echinochloa oryzicola); experiment: Test Example 4: flooding treatment on paddy fields; conditions: application amount of active ingredient 250 g/ha, examined 19 days after application, index 0 to 5
Protocol: Cylindrical plastic pots of 9 cm in diameter and 11 cm in depth were filled with soil, in which the seeds of barnyardgrass (Echinochloa oryzicola) were sowed. These pots were flooded to form a paddy field, and the test plants were grown in a greenhouse for 7 days. Each of the test compounds listed below was formulated into an emulsifiable concentrate according to Formulation Example 2, which was diluted with water to a prescribed concentration. The dilution was applied to the water surface in the pots at a volume of 50 liters per hectare. After the application, the test plants were grown in the greenhouse for 19 days, and the herbicidal activity was examined.

[9] = tested on: common lambsquarters (Chenopodium album); experiment: Test Example 7: soil surface treatment on upland fields; conditions: 63 g/ha active ingredient; soil surface spray; examined after 19 days
Text: as §2
(§5) Plastic pots of 25×18 cm^2 in area and 7 cm in depth were filled with soil, in which the seeds of soybean (Glycine max), corn (Zea mays), common lambsquarters (Chenopodium album), slender amaranth (Amaranthus gracilis), and pale smartweed (Polygonum lapathifolium) were sowed. Each of the test compounds listed below was formulated into an emulsifiable concentrate according to Formulation Example 2, which was diluted with water to a prescribed concentration. The dilution was uniformly sprayed over the soil surface in the pots with a sprayer at a volume of 1000 liters per hectare. After the application, the test plants were grown in a greenhouse for 19 days, and the herbicidal activity and phytotoxicity were examined.

[10] = tested on: pale smartweed (Polygonum lapathifolium); experiment: as above; conditions: 63 g/ha active ingredient; soil surface spray; examined after 19 days
Text: as §2, §5

[11] = tested on: slender amaranth (Amaranthus gracilis); experiment: as above; conditions: 63 g/ha active ingredient; soil surface spray; examined after 19 days
Text: as §2, §5

[12] = tested on: catchweed bedstraw (Galium aparine); experiment: Test Example 6: foliar treatment on upland fields; conditions: 63 g/ha active ingredient; foliar spray; 25 days after application
Text: as §2
(§6) Plastic pots of 16×11 cm^2 in are and 7 cm in depth were filled with soil, in which the seeds of wheat (Triticum aestivum), pale smartweed (Polygonum lapathifolium), catchweed bedstraw (Galium aparine), and common chickweed (Stellaria media) were sowed, and the test plants were grown for 29 days. Each of the test compounds listed below was formulated into an emulsifiable concentrate according to Formulation Example 2, which was diluted with water to a prescribed concentration. The dilution was uniformly sprayed over the foliage of the test plants with a sprayer at a volume of 1000 liters per hectare. At this time, the unfavorable weeds and crop plants, although their growth state was different depending upon the weed species, were at the 1- to 4-leaf stage, and the plant height was 5 to 15 cm. After 25 days from the application, the herbicidal activity and phytotoxicity were examined. This test was made in a greenhouse over the entire period.

[13] = tested on: common chickweed (Stellaria media); experiment: Test Example 6: foliar treatment on upland fields; conditions: 63 g/ha active ingredient; foliar spray; 25 days after application
Text: as §2, §6

[14] = tested on: pale smartweed (Polygonum lapathifolium); experiment: Test Example 6: foliar treatment on upland fields; conditions: 63 g/ha active ingredient; foliar spray; 25 days after application
Text: as §2, §6

[15] = tested on: common cocklebur (Xanthium pensylvanicum); experiment: Test Example 5: foliar treatment on upland fields; conditions: 63 g/ha active ingredient; foliar spray; 18 days after application
Text: as §2
(§7) Plastic pots of 25×18 cm^2 in area and 7 cm in depth were filled with soil, in which the seeds of soybean (Glycine max), corn (Zea mays), entireleaf morningglory (Ipomoea hederacea var. integriuscula), common cocklebur (Xanthium pensylvanicum), common ragweed (Ambrosia artemisiifolia), and common lambsquarters (Chenopodium album) were sowed, and the test plants were grown for 16 days. Each of the test compounds listed below was formulated into an emulsifiable concentrate according to Formulation Example 2, which was diluted with water to a prescribed concentration. The dilution was uniformly sprayed over the foliage of the test plants with a sprayer at a volume of 1000 liters per hectare. At this time, the unfavorable weeds and crop plants, although their growth state was different depending upon the weed species, were at the 1- to 4-leaf stage, and the plant height was 5 to 20 cm. After 18 days from the application, the herbicidal activity and phytotoxicity were examined. This test was made in a greenhouse over the entire period.

[16] = tested on: common lambsquarters (Chenopodium album); experiment: Test Example 5: foliar treatment on upland fields; conditions: 63 g/ha active ingredient; foliar spray; 18 days after application
Text: as §2, §7

[17] = tested on: common ragweed (Ambrosia artemisiifolia); experiment: Test Example 5: foliar treatment on upland fields; conditions: 63 g/ha active ingredient; foliar spray; 18 days after application
Text: as §2, §7

[18] = tested on: entireleaf morningglory (Ipomoea hederacea var. integriuscula); experiment: Test Example 5: foliar treatment on upland fields; conditions: 63 g/ha active ingredient; foliar spray; 18 days after application
Text: as §2, §7

corn (Zea mays) = experiment: Test Example 5: foliar treatment on upland fields (phytotoxicity); conditions: 63 g/ha active ingredient; foliar spray; 18 days after application
Text: as §2, §7

soybean (Glycine max) = experiment: as above; conditions: 63 g/ha active ingredient; foliar spray; 18 days after application
Text: as §2, §7

Compound | Herbicidal activity Entireleaf morningglory [1] | Herbicidal activity Velvetleaf [2] | Herbicidal activity Barnyardgrass [3] | Herbicidal activity Entireleaf morningglory [4] | Herbicidal activity Velvetleaf [5] | Herbicidal activity Entireleaf morningglory [6] | Herbicidal activity Velvetleaf [7] | Herbicidal activity Barnyardgrass [8] | Herbicidal activity and phytotoxicity Common lambsquarters [9] | Herbicidal activity and phytotoxicity Pale smartweed [10] | Herbicidal activity and phytotoxicity Slender amaranth [11] | Herbicidal activity and phytotoxicity Catchweed bedstraw [12] | Herbicidal activity and phytotoxicity Common chickweed [13] | Herbicidal activity and phytotoxicity Pale smartweed [14] | Herbicidal activity and phytotoxicity Common cocklebur [15] | Herbicidal activity and phytotoxicity Common lambsquarters [16] | Herbicidal activity and phytotoxicity Common ragweed [17] | Herbicidal activity and phytotoxicity Entireleaf morningglory [18] | Herbicidal activity and phytotoxicity Corn (corn (Zea mays)) | Herbicidal activity and phytotoxicity Soybean (soybean (Glycine max))
C#CCN1C(=O)COc2cc(F)c(-n3ncc(C(F)(F)F)cc3=O)cc21 [Compound 2-631, 7-Fluoro-6-(5-trifluoromethyl-3-pyridazinon-2-yl)-4-propargyl-2H-1,4-benzoxazin-3-one] | 5 | 5 | 5 | 5 | 5 | 5 | 5 | 5 | 5 | 5 | 5 |  |  |  |  |  |  |  |  | 
C#CCOc1cc(-n2ncc(C(F)(F)F)c(C)c2=O)c(F)cc1Cl [Compound 1-486, 2-(4-Chloro-2-fluoro-5-propargyloxyphenyl)-4-methyl-5-trifluoromethylpyridazin-3-one] | 5 | 5 | 4 | 5 | 5 | 5 | 5 | 5 |  |  |  | 5 | 5 | 5 |  |  |  |  |  | 
CCOC(=O)COc1cc(-n2ncc(C(F)(F)F)c(C)c2=O)c(F)cc1Cl [Compound 1-496, Ethyl 2-chloro-4-fluoro-5-(4-methyl-5-trifluoromethyl-3-pyridazinon-2-yl)phenoxyacetate] | 5 | 5 | 5 | 5 | 5 | 5 | 5 | 5 |  |  |  | 5 | 4 | 4 | 5 | 5 | 5 | 5 |  | 
C#CCN1C(=O)COc2ccc(-n3ncc(C(F)(F)F)c(C)c3=O)cc21 [Compound 2-203, 6-(4-Methyl-5-trifluoromethyl-3-pyridazinon-2-yl)-4-propargyl-2H-1,4-benzoxazin-3-one] | 5 | 5 | 4 | 5 | 5 | 5 | 5 | 5 | 5 | 5 | 5 |  |  |  |  |  |  |  |  | 
Pentyl 2-chloro-4-fluoro-5-(4-methyl-5-trifluoromethyl-3-pyridazinon-2-yl) phenoxyacetate [Compound 1-499] | 5 | 5 | 5 | 5 | 5 | 5 | 5 | 5 |  |  |  |  |  |  | 5 | 4 | 5 | 5 | 1 | 1
CCOC(=O)c1cc(-n2ncc(C(F)(F)F)c(C)c2=O)c(F)cc1Cl [Compound 1-642, Ethyl 2-chloro-4-fluoro-5-(4-methyl-5-trifluoromethyl-3-pyridazinon-2-yl)benzoate] | 5 | 5 | 5 | 5 | 5 | 5 | 5 | 5 | 5 | 5 | 5 |  |  |  |  |  |  |  |  | 
